# In US20210221848A1, “POLYMYXIN DERIVATIVES AND THEIR USE IN COMBINATION THERAPY TOGETHER WITH DIFFERENT ANTIBIOTICS” (priority 2014, published 2021):
# Like-named read-outs stand apart in the source and are kept apart here.
# Tests used:
# E. coli [1] = tested on: E. coli
# P. aeruginosa [2] = tested on: P. aeruginosa
# K. pneumoniae [3] = tested on: K. pneumoniae
# A. baumannii [4] = tested on: A. baumannii
# K. pneumoniae [5] = experiment: MIC in the presence of a fixed concentration (2 μg/mL) of Rifampicin; format: cell-based, Klebsiella pneumoniae; conditions: Rifampicin 2 μg/mL, Table 5D
# Experimental: (§1) The inoculum was prepared by making a direct suspension of isolated colonies (selected from an 18-24 hour Mueller-Hinton agar plate) adjusted to the 0.5 McFarland standard. […] The assays were performed in duplicate. […] In cases where the duplicate values varied by less than 2-fold, the lower of the two values is reported. If a variation of greater than 2-fold was observed, the assay was considered non-valid. Several of the compounds were subjected to multiple tests, and where this is the case, the MIC reflects the modal value obtained.
# E. coli [6] = experiment: as above; format: cell-based, Escherichia coli; conditions: Rifampicin 2 μg/mL, Table 5D
# HK-2 cell line = experiment: In vitro renal cell toxicity assay (resazurin reduction)
# Experimental: MICs were determined as described herein. HK-2 cell IC50 values were determined as described herein. Values are reported relative to Polymyxin B.
# A. baumannii [7] = experiment: MIC in the presence of […] of rifampicin; format: cell-based, Acinetobacter baumannii
# Experimental: as §1
# [8] = tested on: Acinetobacter baumannii NCTC 13301; conditions: mouse thigh, 16 h model
# [9] = tested on: Acinetobacter baumannii NCTC 13301; conditions: for Mean log10 CFU reduction vs. control: mouse lungs, A. baumannii NCTC 13301, SC at 2, 6 and 10 h post-infection, 16 h infection model
# Experimental: On Day 0, animals were infected with 0.04 mL inoculum by intranasal instillation into mouse nostrils and were kept in an upright position on a string rack for ˜10 min post-infection. […] The vehicle control group (7 mice) was treated with 0.9% saline for injection at 2, 6 and 10 h post-infection.
# Sixteen hours after infection, the mice were euthanized humanely. The lungs of each animal were harvested, homogenized and quantitatively cultured onto CLED agar for CFU determination. Decrease of the total CFU compared to control counts at 16 h post-infection was determined for each dose group.
# P. aeruginosa [10] = experiment: MIC in 1:1 (wt:wt) combination with Rifampicin; format: cell-based, Pseudomonas aeruginosa; conditions: 1:1 (wt:wt) with Rifampicin, total drug concentration
# Experimental: as §1
# (§2) MIC values (microgram/mL) refer to the total drug concentration (i.e. test agent plus Rifampicin).
# [11] = tested on: E. coli strains with elevated MICs to Polymyxin B; experiment: MIC against strains with elevated MICs to Polymyxin B; format: cell-based, Escherichia coli; conditions: Table 6D; for MIC E. coli 058: strain 058, elevated MIC to Polymyxin B; for MIC E. coli 059: strain 059, elevated MIC to Polymyxin B; for MIC E. coli 060: strain 060, elevated MIC to Polymyxin B; for MIC E. coli 061: strain 061, elevated MIC to Polymyxin B
# Summary of the method: (§3)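 Inoculum was a direct suspension of colonies from an 18-24 hour Mueller-Hinton agar plate, adjusted to the 0.5 McFarland standard. Duplicate assays; the lower value was reported when duplicates differed by less than 2-fold, otherwise the run was invalid. Repeat-tested compounds give the modal MIC.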
# [12] = tested on: P. aeruginosa strains with elevated MICs to Polymyxin B; experiment: as above; format: cell-based, Pseudomonas aeruginosa; conditions: Table 6D; for MIC P. aeruginosa 065: strain 065, elevated MIC to Polymyxin B; for MIC P. aeruginosa 066: strain 066, elevated MIC to Polymyxin B; for MIC P. aeruginosa 067: strain 067, elevated MIC to Polymyxin B
# Summary of the method: as §3
# [13] = tested on: A. baumanii strains with elevated MICs to Polymyxin B; experiment: as above; format: cell-based, Acinetobacter baumannii; conditions: Table 6D; for MIC A. baumannii 053: strain 053, elevated MIC to Polymyxin B; for MIC A. baumannii 056: strain 056, elevated MIC to Polymyxin B; for MIC A. baumannii 068: strain 068, elevated MIC to Polymyxin B
# Summary of the method: as §3
# [14] = tested on: K. pneumoniae strains with elevated MICs to Polymyxin B; experiment: as above; format: cell-based, Klebsiella pneumoniae; conditions: Table 6D; for MIC K. pneumoniae 062: strain 062, elevated MIC to Polymyxin B; for MIC K. pneumoniae 063: strain 063, elevated MIC to Polymyxin B; for MIC K. pneumoniae 064: strain 064, elevated MIC to Polymyxin B
# Summary of the method: as §3
# E. coli [15] = experiment: MIC in 1:1 (wt:wt) combination with Rifampicin; format: cell-based, Escherichia coli; conditions: 1:1 (wt:wt) with Rifampicin, total drug concentration
# Experimental: as §1, §2
# A. baumannii [16] = experiment: MIC in 1:1 (wt:wt) combination with Rifampicin; format: cell-based, Acinetobacter baumannii; conditions: 1:1 (wt:wt) with Rifampicin, total drug concentration
# Experimental: as §1, §2
# K. pneumoniae [17] = experiment: MIC in 1:1 (wt:wt) combination with Rifampicin; format: cell-based, Klebsiella pneumoniae; conditions: 1:1 (wt:wt) with Rifampicin, total drug concentration
# Experimental: as §1, §2
# [18] = absence of a second agent, Table 6B
substance,measurement,setting,value
3-Amino-2- benzylpropanoylpoly- myxin B nonapeptide [Example D5],"MIC, E. coli ATCC 25922",E. coli [1]; [18],8 micrograms/mL
same,"MIC, E. coli NCTC 13441",E. coli [1]; [18],>8 micrograms/mL
same,"MIC, P. aeruginosa ATCC 27853",P. aeruginosa [2]; [18],1 micrograms/mL
same,"MIC, P. aeruginosa CCUG 59347",P. aeruginosa [2]; [18],>8 micrograms/mL
same,"MIC, K. pneumoniae ATCC 4352",K. pneumoniae [3]; [18],8 micrograms/mL
same,"MIC, K. pneumoniae ATCC BAA-2146",K. pneumoniae [3]; [18],>8 micrograms/mL
same,"MIC, A. baumannii ATCC BAA-747",A. baumannii [4]; [18],>8 micrograms/mL
same,"MIC, A. baumannii NCTC 13424",A. baumannii [4]; [18],>8 micrograms/mL
same,"MIC in combination with Rifampicin, K. pneumoniae ATCC 4352",K. pneumoniae [5]; K. pneumoniae ATCC 4352,0.03 micrograms/mL
same,"MIC in combination with Rifampicin, K. pneumoniae ATCC BAA-2146",K. pneumoniae [5]; K. pneumoniae ATCC BAA-2146,0.25 micrograms/mL
same,"MIC in combination with Rifampicin, E. coli ATCC 25922",E. coli [6]; E. coli ATCC 25922,0.03 micrograms/mL
same,"MIC in combination with Rifampicin, E. coli NCTC 13441",E. coli [6]; E. coli NCTC 13441,0.06 micrograms/mL
same,HK-2 IC50 rel to PMB,HK-2 cell line,15.3
same,"MIC in combination with Rifampicin, A. baumannii ATCC BAA-747","A. baumannii [7]; A. baumannii ATCC BAA-747, Table 5D",0.25 micrograms/mL
same,"MIC in combination with Rifampicin, A. baumannii NCTC 13424","A. baumannii [7]; A. baumannii NCTC 13424, Table 5D",≤0.015 micrograms/mL
(trans-5-(isobutyl- piperidine)-3- carbonyl L-Thr-L- Dap-polymyxin B heptapeptide [Example D65],"MIC, E. coli ATCC 25922","E. coli [1]; sole activity, Table 6C",0.03 micrograms/mL
same,"MIC, E. coli NCTC 13441","E. coli [1]; sole activity, Table 6C",0.06 micrograms/mL
same,Mean log10 CFU reduction vs. control,"[8]; 0.215 mg/kg/dose free base SC at 2, 6 and 10 h post-infection",0.71 log10 CFU
same,Mean log10 CFU reduction vs. control,"[8]; 0.86 mg/kg/dose free base SC at 2, 6 and 10 h post-infection",2.40 log10 CFU
same,Mean log10 CFU reduction vs. control,"[8]; 2.6 mg/kg/dose free base SC at 2, 6 and 10 h post-infection",5.42 log10 CFU
same,Mean log10 CFU reduction vs. control,"[8]; 8.6 mg/kg/dose free base SC at 2, 6 and 10 h post-infection",6.05 log10 CFU
same,Mean log10 CFU reduction vs. control,"[8]; 17.2 mg/kg/dose free base SC at 2, 6 and 10 h post-infection",6.59 log10 CFU
same,efficacy compared with polymyxin B,"[9]; mouse lung, all doses (2.6, 8.6, 17.2 and 25.8 mg/kg free base), SC at 2, 6 and 10 h, 16 h",greater efficacy than observed with the equivalent dose of polymyxin B
same,Mean log10 CFU reduction vs. control,[9]; 2.6 mg/kg/dose free base,1.07 log10 CFU
same,Mean log10 CFU reduction vs. control,[9]; 8.6 mg/kg/dose free base,1.91 log10 CFU
same,Mean log10 CFU reduction vs. control,[9]; 17.2 mg/kg/dose free base,2.89 log10 CFU
same,Mean log10 CFU reduction vs. control,[9]; 25.8 mg/kg/dose free base,8.15 log10 CFU
same,"MIC, P. aeruginosa ATCC 27853","P. aeruginosa [2]; sole activity, Table 6C",0.25 micrograms/mL
same,"MIC, P. aeruginosa CCUG 59347","P. aeruginosa [2]; sole activity, Table 6C",0.25 micrograms/mL
same,"MIC, K. pneumoniae ATCC 4352","K. pneumoniae [3]; sole activity, Table 6C",0.03 micrograms/mL
same,"MIC, K. pneumoniae ATCC BAA-2146","K. pneumoniae [3]; sole activity, Table 6C",0.125 micrograms/mL
same,"MIC in 1:1 combination with rifampicin, P. aeruginosa 063",P. aeruginosa [10]; P. aeruginosa 063,16 microgram/mL
same,"MIC in 1:1 combination with rifampicin, P. aeruginosa 068",P. aeruginosa [10]; P. aeruginosa 068,1 microgram/mL
same,"MIC, A. baumannii ATCC BAA-747","A. baumannii [4]; sole activity, Table 6C",0.06 micrograms/mL
same,"MIC, A. baumannii NCTC 13424","A. baumannii [4]; sole activity, Table 6C",0.125 micrograms/mL
same,MIC E. coli 058,[11],1 micrograms/mL
same,MIC E. coli 059,[11],2 micrograms/mL
same,MIC E. coli 060,[11],1 micrograms/mL
same,MIC E. coli 061,[11],2 micrograms/mL
same,MIC P. aeruginosa 065,[12],2 micrograms/mL
same,MIC P. aeruginosa 066,[12],1 micrograms/mL
same,MIC P. aeruginosa 067,[12],64 micrograms/mL
same,MIC A. baumannii 053,[13],16 micrograms/mL
same,MIC A. baumannii 056,[13],1 micrograms/mL
same,MIC A. baumannii 068,[13],2 micrograms/mL
same,MIC A. baumannii 070,"[13]; strain 070, elevated MIC to Polymyxin B",4 micrograms/mL
same,MIC K. pneumoniae 062,[14],32 micrograms/mL
same,MIC K. pneumoniae 063,[14],8 micrograms/mL
same,MIC K. pneumoniae 064,[14],2 micrograms/mL
same,MIC K. pneumoniae 655,"[14]; strain 655, elevated MIC to Polymyxin B",4 micrograms/mL
same,"MIC in 1:1 combination with rifampicin, E. coli 058",E. coli [15]; E. coli 058,≤0.5 microgram/mL
same,"MIC in 1:1 combination with rifampicin, E. coli 059",E. coli [15]; E. coli 059,≤0.5 microgram/mL
same,"MIC in 1:1 combination with rifampicin, E. coli 060",E. coli [15]; E. coli 060,≤0.5 microgram/mL
same,"MIC in 1:1 combination with rifampicin, E. coli ATCC 25922",E. coli [15]; E. coli ATCC 25922,≤0.5 microgram/mL
same,"MIC in 1:1 combination with rifampicin, A. baumannii 053",A. baumannii [16]; A. baumannii 053,≤0.5 microgram/mL
same,"MIC in 1:1 combination with rifampicin, A. baumannii 056",A. baumannii [16]; A. baumannii 056,≤0.5 microgram/mL
same,"MIC in 1:1 combination with rifampicin, K. pneumoniae 062",K. pneumoniae [17]; K. pneumoniae 062,1 microgram/mL
same,"MIC in 1:1 combination with rifampicin, K. pneumoniae CCUG 59348",K. pneumoniae [17]; K. pneumoniae CCUG 59348,1 microgram/mL
trans-4-(2- methylpropyl) pyrrolidine-3- carbonyl-L-Thr- L-Dap-polymyxin B heptapeptide [Example D68],"MIC, E. coli ATCC 25922","E. coli [1]; sole activity, Table 6C",0.25 micrograms/mL
same,"MIC, E. coli NCTC 13441","E. coli [1]; sole activity, Table 6C",0.25 micrograms/mL
same,"MIC, P. aeruginosa ATCC 27853","P. aeruginosa [2]; sole activity, Table 6C",0.5 micrograms/mL
same,"MIC, P. aeruginosa CCUG 59347","P. aeruginosa [2]; sole activity, Table 6C",0.5 micrograms/mL
same,"MIC, K. pneumoniae ATCC 4352","K. pneumoniae [3]; sole activity, Table 6C",0.125 micrograms/mL
same,"MIC, A. baumannii ATCC BAA-747","A. baumannii [4]; sole activity, Table 6C",0.25 micrograms/mL
same,"MIC, A. baumannii NCTC 13424","A. baumannii [4]; sole activity, Table 6C",0.5 micrograms/mL
same,MIC E. coli 058,[11],8 micrograms/mL
same,MIC E. coli 059,[11],16 micrograms/mL
same,MIC E. coli 060,[11],8 micrograms/mL
same,MIC E. coli 061,[11],32 micrograms/mL
same,MIC P. aeruginosa 065,[12],16 micrograms/mL
same,MIC P. aeruginosa 066,[12],16 micrograms/mL
same,MIC P. aeruginosa 067,[12],>256 micrograms/mL
same,MIC A. baumannii 053,[13],>256 micrograms/mL
same,MIC A. baumannii 056,[13],128 micrograms/mL
same,MIC A. baumannii 068,[13],16 micrograms/mL
same,MIC K. pneumoniae 062,[14],64 micrograms/mL
same,MIC K. pneumoniae 063,[14],64 micrograms/mL
same,MIC K. pneumoniae 064,[14],16 micrograms/mL
same,HK-2 IC50 rel to PMB*,HK-2 cell line,5.3
